Where a name gives a salt, the structure may show the parent alone.
Test system: clonic seizures caused by pentylenetetrazole
Experiment: Protection against clonic seizures caused by pentylenetetrazole in rats (oral)
Format: in vivo
Conditions: Rattus norvegicus, rats (at least 5 per group), 2% starch vehicle, pentylenetetrazole 21 to 23 mg./kg. intravenously at estimated time of peak effect, protection of 50% of animals, read-out: MEDIAN EFFECTIVE ORAL DOSE ED50
Experimental: The anti-anxiety properties of the compounds of the present invention have been established in a test which indicates anxiolytic activity by a measure of protection from convulsions resulting from the administration of pentylenetetrazole. Graded dose levels of the compounds of this invention are administered orally, in a 2% starch vehicle, to groups of at least 5 rats. At the estimated time of peak effect, the rats are treated intravenously with pentylenetetrazole at a dose of 21 to 23 mg./kg. of body weight. This dose is estimated to cause clonic seizures in 99% of unprotected rats. The effective dose of the test compound for protection of 50% of the animals is calculated by the method of D. H. Finney in Statistical Methods in Biological Assay, Second Edition, Hafner Publishing Co., New York, 1964, pp. 456- 457. Representative results are given in the table which follows in comparison with Librium (chlordiazepoxide) or Valium (diazepam), all of which were tested in exactly the same manner. It has been reported [R. T. Hill and D. H. Tedeschi, "Animal Testing and Screening Procedures in Evaluating Psychotropic Drugs" in An Introduction to Psychopharmacology, Eds. R. R. Rech and K. E. Moore, Raven Press, New York, pp. 237-288 (1971)] that there is a high degree of correlation between antagonism of pentylenetetrazole seizures in rats and antianxiety effects in higher warm-blooded animals.

## CN1C(=O)CN=C(c2ccccc2)c2cc(Cl)ccc21 [Valium (diazepam), diazepam, reference compound]
  ED50: 1.8 mg/kg

## CN1C(=O)C2CCCN2Cc2cc(Cl)ccc21 (racemic) [Racemic 7-chloro-1,2,3,5,10,11a-hexahydro-10-methyl-11H-pyrrolo[2,1-c][1,4]benzodiazepin-11-one hydrochloride]
  ED50: 91 mg/kg

## CN1C(=O)[C@@H]2CCCN2Cc2ccccc21 [Dextro 1,2,3,5,10,11a-hexahydro-10-methyl-11H-pyrrolo[2,1-c][1,4]-benzodiazepin-11-one hydrochloride]
  ED50: 15 mg/kg

## CNC1=Nc2ccc(Cl)cc2C(c2ccccc2)=[N+]([O-])C1 [Librium (chlordiazepoxide), chlordiazepoxide, reference compound]
  ED50: 2.5 mg/kg

## CN1C(=O)[C@@H]2CCCN2Cc2cc(Cl)ccc21 [Dextro 7-chloro-1,2,3,5,10,11a-hexahydro-10-methyl-11H-pyrrolo[2,1-c][1,4]benzodiazepin-11-one hydrochloride]
  ED50: 80 mg/kg

## Cc1ccc2c(c1)CN1CCC[C@H]1C(=O)N2C [Dextro 7,10-dimethyl-1,2,3,5,10,11a-hexahydro-11H-pyrrolo[2,1-c][1,4]benzodiazepin-11-one hydrochloride]
  ED50: 32 mg/kg

## CN1C(=O)C2CCCN2Cc2ccccc21 (racemic) [Racemic 1,2,3,5,10,11a-hexahydro-10-methyl-11H-pyrrolo[2,1-c][1,4]benzodiazepin-11-one hydrochloride]
  ED50: 66 mg/kg

Source: patent US3947408A, “Pyrrolo-benzodiazepines, method of preparation and method of use” (American Cyanamid Company, priority 1974, dated 1976)
